Measured values from patent publication US5944026A, “Tobacco products or materials resembling tobacco products containing natural substances having an antioxidative effect and processes for the preparation thereof” (priority 1994, dated 1999).
Where two headings read alike, the source gives them in different places.

What was measured:
[1] = Solubility/miscibility of aromatic substances, vitamins A and E and β-carotene in natural substances used as solvents; type: physicochemical
[2] = Solubility of aromatic substances and the vitamins A and E in filter hardeners; settings: for solubility in hardener TEGDA: hardener: TEGDA (triethylene glycol diacetate)
[3] = test system: Salmonella typhimurium, strain TA 98; assay: Ames test (TA98): antimutagenic effect of added substances on mutagenicity of cigarette smoke condensate; type: cell-based; settings: graphical representation in figure
Method: To detect this antimutagenic action, the Ames test (loc.cit.) was carried out as a meaningful rapid test.
It was ensured in this process that work was carried out in a concentration range which was not toxic for the bacteria.

[4] = test system: Salmonella typhimurium, strain TA 98; assay: Ames test with S9 activation: smoke condensate of experimental cigarettes with cloves, cinnamon sticks or eugenol; type: cell-based; settings: additions to cut tobacco
Method: Five versions of filter cigarettes which differ in the composition of the final mixture according to Table 6 and have the same tobacco base mixture were prepared in the same format and same cigarette weight (940 mg). The cloves or cinnamon sticks employed were moistened with steam, rolled and cut before mixing with tobacco.
The experimental cigarettes were smoked under standard conditions (see Example 1).

SMILES | solubility in cinnamaldehyde as a solvent ([1]; solvent: cinnamaldehyde) [% by weight] | solubility in eugenol as a solvent [1] [% by weight] | solubility in jasminealdehyde as a solvent ([1]; solvent: jasminealdehyde) [% by weight] | solubility in hardener triacetin [2] [% by weight] | mutagenicity of cigarette smoke condensate on addition of the substance [3] | also measured
Cc1c(C)c2c(c(C)c1OC(=O)CCC(=O)O)CC[C@@](C)(CCC[C@H](C)CCC[C@H](C)CCCC(C)C)O2 [Vitamin E succinate, tocopherol succinate] | > 10 | > 10 | > 10 | < 1 |  | solubility in hardener TEGDA [2]: < 1 % by weight; solubility in hardener eugenol [2]: 10 % by weight
O=C(O)/C=C/c1ccc(O)c(O)c1 [caffeic acid, Caffeic acid] |  |  |  |  | reduction of the mutagenicity | 
Cc1ccc2oc(=O)ccc2c1 [6-Methylcoumarin] |  |  |  |  |  | solubility in cinnamaldehyde as a solvent [1]: > 10 % by weight; solubility in jasminealdehyde as a solvent [1]: > 10 % by weight
Cc1c(C)c2c(c(C)c1O)CCC(C)(CCCC(C)CCCC(C)CCCC(C)C)O2 (stereo not drawn) [Vitamin E, α-tocopherol] |  |  |  | > 10 |  | 
CCOc1cc(C=O)ccc1O [Ethylvanillin] | > 10 | > 10 | > 10 | > 10 |  | solubility in vitamin E acetate as a solvent [1]: < 1 % by weight; solubility in hardener TEGDA [2]: > 10 % by weight; solubility in hardener eugenol [2]: > 10 % by weight
CC1=C(/C=C/C(C)=C/C=C/C(C)=C/C=C/C=C(C)/C=C/C=C(C)/C=C/C2=C(C)CCCC2(C)C)C(C)(C)CCC1 [β-carotene] | > 1 | < 1 | < 1 |  |  | solubility in vitamin E acetate as a solvent [1]: < 1 % by weight
COc1cc2ccc(=O)oc2cc1O [scopoletin, 7-hydroxy-6-methoxycoumarin] |  |  |  |  | reduction of the mutagenicity | 
CC1=C(/C=C/C(C)=C/C=C/C(C)=C/CO)C(C)(C)CCC1 [Vitamin A, retinol] |  |  |  |  |  | solubility in cinnamaldehyde as a solvent [1]: > 10 % by weight; solubility in jasminealdehyde as a solvent [1]: > 10 % by weight
COc1cc(/C=C/C(=O)CC(=O)/C=C/c2ccc(O)c(OC)c2)ccc1O [curcumin, Curcumin] |  |  |  |  | reduction of the mutagenicity | 
C=CCc1ccc(O)c(OC)c1 [eugenol, Eugenol] |  |  |  |  | reduction of the mutagenicity | mutagenic effect of the smoke condensate (in words) [4]: decrease the mutagenic effect of the smoke condensate
